Source: patent US4077981A, “Certain 1-alkyl-2-dichlorophenyliminopyrrolidines” (Bayer Aktiengesellschaft, priority 1968, dated 1978)
Read-outs that look alike come from different tables or passages of the source.

Tests used:
[1] = tested on: Boophilus microplus, Biarra strain (resistant); assay: In-vitro test for ovicidal effect on ticks (Biarra strain); details: for Ovicidal effect: 50% inhibition with the stated concentration of active compound: Table 4, concentration giving 50% inhibition; for Ovicidal effect: 50% inhibition with the stated concentration of active compound / Ovicidal effect: 100% inhibition with the stated concentration of active compound: ovicidal only (marked not adulticidal); for Ovicidal effect: 100% inhibition with the stated concentration of active compound: Table 4, concentration giving 100% inhibition
Method: (§1) In-vitro Test for Ovicidal Effect on Ticks
The emulsion concentrate so obtained is diluted with water to the application concentration desired in each case.
After immersion of, in each case, 10 female specimens of the various strains of ticks, the individual ticks are transferred to plastic dishes, the bottom of each of which is covered with a disc of filter paper.

Boophilus, Biarra strain = assay: In-vitro test for adulticidal effect on ticks (24 hours); set-up: species or system Boophilus microplus; details: Table 4, after 24 hours, at the concentrations stated
Method: In addition, the adulticidal effectiveness of the preparation of the given active compound after 24 hours is determined by ascertaining the voluntary movement of limbs and bodies of the immersed adult ticks after stimulation with a fine needle compared with the voluntary movement of limbs and bodies of the untreated adult ticks. The effectiveness is stated in %, 100% meaning that no movements of any kind of the limbs and bodies were any longer detectable, and 0% signifying that the ticks moved limbs and bodies in normal manner.

Toxicity on the mouse = details: in vivo, read-out: Toxicity (highest survived dose)
Method: The toxicity determined on the mouse is: orally, 500 mg/kg; subcutaneously,500 mg/kg (highest survived doses).

[2] = tested on: Boophilus microplus, Ridgeland strain (resistant); assay: In-vitro test for ovicidal effect on ticks (Ridgeland strain); details: Rhipicephalus microplus, 840 h, Ridgeland strain, resistant, after 35 days, read-out: Inhibition of egg depositing
Method: as §1
(§2) 3 g of the particular active compound are mixed with 7 g of a mixture of equal parts by weight of ethyleneglycol monomethyl ether and nonylphenyl polyglycol ether. The emulsion concentrate so obtained is diluted with water to the application concentration desired in each case.
(§3) Adult, fully engorged female ticks of the species Boophilus microplus (resistant) are immersed for 1 minute in this preparation of the given active compound. After immersion of, in each case, 10 female specimens of the various strains of ticks, the individual ticks are transferred to plastic dishes, the bottom of each of which is covered with a disc of filter paper. As a control, similar ticks of a normally sensitive strain are treated in exactly the same manner.
(§4) After 35 days, the effectiveness of the preparation of the given active compound is determined by ascertaining the inhibition of the depositing of fertile eggs compared with the egg depositing of untreated control ticks. The effect is stated in %, 100% meaning that fertile eggs ceased to be deposited, and 0% signifying that the ticks have deposited eggs in normal manner like the untreated control ticks.

[3] = tested on: Boophilus microplus, normally sensitive strain; assay: In-vitro test for ovicidal effect on ticks (normally sensitive strain); details: Rhipicephalus microplus, 840 h, after 35 days, read-out: Inhibition of egg depositing
Method: as §1, §2, §3, §4

[4] = tested on: Boophilus microplus, Biarra strain; assay: In-vivo test against ticks on cattle; set-up: species or system Boophilus microplus (on cattle)
Method: In-vivo test against ticks on cattle
3 parts of the particular active compound are mixed with 7 parts of a mixture of equal parts by weight of ethyleneglycol monomethyl ether and nonylphenyl polyglycol ether. The emulsion concentrate so obtained is diluted with water to the application concentration desired in each case.
Cattle which have been infected (12 times at intervals of 2 days) with resistant larvae of ticks of the species Boophilus microplus, Biarra strain, are sprayed on the 24th day after the first infection with the preparation of the given active compound so obtained.
The effect of the preparation of the given active compound is determined by ascertaining the number of adult female ticks which have reached development on the treated cattle and later lay viable eggs. This number is compared with the number of adult femal ticks which have reached development on untreated cattle.
As a measure of the intensity of the infestation before treatment, there is used the number of adult females which reach development in the case of the treated and untreated animals in the last three days before the time of treatment.

SMILES: CC=CCN1CCCC1=Nc1ccc(Cl)cc1Cl
- Ovicidal effect: 50% inhibition with the stated concentration of active compound [1]: 0.03 % by weight
- Ovicidal effect: 100% inhibition with the stated concentration of active compound [1]: 0.01 % by weight
- Adulticidal effect (Boophilus, Biarra strain): not adulticidal

SMILES: C=CCN1CCCC1=Nc1ccc(F)cc1Cl
- Ovicidal effect: 50% inhibition with the stated concentration of active compound [1]: 0.03 % by weight
- Ovicidal effect: 100% inhibition with the stated concentration of active compound [1]: 0.1 % by weight
- Adulticidal effect (Boophilus, Biarra strain): not adulticidal

SMILES: C=CCN1CCCC1=Nc1ccc(Cl)cc1Cl [Example 6, 1-(α-allyl)-2-(2',4'-dichloro-phenylimino)-pyrrolidine]
- MTD (Toxicity on the mouse; po, orally): 500 mg/kg
- MTD (Toxicity on the mouse; sc, subcutaneously): 500 mg/kg

SMILES: CCCCN1CCCC1=Nc1ccc(F)cc1Cl
- Ovicidal effect: 50% inhibition with the stated concentration of active compound [1]: 0.01 % by weight
- Ovicidal effect: 100% inhibition with the stated concentration of active compound [1]: 0.03 % by weight
- Adulticidal effect (Boophilus, Biarra strain): not adulticidal

SMILES: C=CCN1CCCC1=Nc1cc(Cl)c(Cl)cc1Cl
- Ovicidal effect: 50% inhibition with the stated concentration of active compound [1]: 0.02 % by weight
- Ovicidal effect: 100% inhibition with the stated concentration of active compound [1]: 0.03 % by weight
- Adulticidal effect (Boophilus, Biarra strain): not adulticidal

SMILES: CN1CCCC1=Nc1ccc(Cl)cc1Cl [l1, 1-methyl-2-(2',4'-dichloro-phenylimino)-pyrrolidine]
- inhibition at 0.01 % strength ([2]; 0.01% active compound): 0%
- inhibition at 0.03 % strength ([2]; 0.03% active compound): > 50%
- inhibition at 0.1 % strength ([2]; 0.1% active compound): 100%
- inhibition at 0.3 % strength ([2]; 0.3% active compound): 100%
- inhibition at 1 % strength ([2]; 1.0% active compound): 100%
- inhibition at 0.01 % strength ([1]; Rhipicephalus microplus, 840 h, 0.01% active compound, resistant, after 35 days, read-out: Inhibition of egg depositing): 0%
- inhibition at 0.03 % strength ([1]; Rhipicephalus microplus, 840 h, 0.03% active compound, resistant, after 35 days, read-out: Inhibition of egg depositing): > 50%
- inhibition at 0.1 % strength ([1]; Rhipicephalus microplus, 840 h, 0.1% active compound, resistant, after 35 days, read-out: Inhibition of egg depositing): 100%
- inhibition at 0.3 % strength ([1]; Rhipicephalus microplus, 840 h, 0.3% active compound, resistant, after 35 days, read-out: Inhibition of egg depositing): 100%
- inhibition at 1 % strength ([1]; Rhipicephalus microplus, 840 h, 1.0% active compound, resistant, after 35 days, read-out: Inhibition of egg depositing): 100%
- inhibition at 0.01 % strength ([3]; 0.01% active compound): 0%
- inhibition at 0.03 % strength ([3]; 0.03% active compound): > 50%
- inhibition at 0.1 % strength ([3]; 0.1% active compound): 100%
- inhibition at 0.3 % strength ([3]; 0.3% active compound): 100%
- inhibition at 1 % strength ([3]; 1.0% active compound): 100%
- Number of female adult ticks which reach development on the cattle ([4]; 0.3%, days after treatment +4+5+6): 1
- Number of female adult ticks which reach development on the cattle ([4]; 0.3%, days after treatment +7+8+9): 119
- Number of female adult ticks which reach development on the cattle ([4]; 0.4%, days after treatment +7+8+9): 72
- Number of female adult ticks which reach development on the cattle ([4]; 0.5%, days after treatment +7+8+9): 1
- Number of female adult ticks which reach development on the cattle ([4]; 0.5%, days after treatment +10+11+12): 7
- Number of female adult ticks which reach development on the cattle ([4]; 0.5%, days after treatment +13+14+15): 3
- Number of female adult ticks which reach development on the cattle ([4]; 0.5%, days after treatment +16+17+18): 1
- Total number of female adult ticks which reach development on the cattle ([4]; 0.5%, total 1-21 days): 12
